Test results reported in patent publication EP0354047A2, “Herbicidal method using atrazine” (MAY & BAKER LIMITED, priority 1988, dated 1990).

Legend:
[1] = system: Eleusine indica; test: Experiment 2: glasshouse experiment, seedlings at 4-leaf stage, percentage phytotoxicity after 19 days; assay type: in vivo
Protocol: Agricultural surfactant - nonylphenol ethylene oxide condensate containing 9 moles ethylene oxide (in a commercial composition) was added to all spray dilutions to give 0.2% v/v concentration. […] The ED50 values were as follows:- The results were then used to plot an isobole with a "two-sided effect" according to the methods of […] op. cit. The isobole produced, shown hereinafter in Figure 1 was clearly a type III curve ([…]., page 75), characteristic of synergism.

[2] = system: Amaranthus retroflexus; test: Experiment 3: glasshouse, post-emergence, fresh weight after 19 days, % inhibition of growth; assay type: in vivo; conditions: 2-4 leaves
Protocol: (§1) A series of experiments was carried out to determine the nature of the biological interaction between atrazine and five compounds of general formula I on a range of weed species. […] The growth stages of the plants at spraying are also presented with the results. Agricultural surfactant (nonyl phenol ethylene oxide condensate containing 9 moles ethylene oxide marketed as 'Agral') was added to all spray dilutions to give 0.2% v/v concentration. […] After 19 days the fresh weight of vegetation in each pot was determined. […] E = […]00003:character} where E, X and Y are percentage inhibition of growth. In addition, the ED50 or ED90 values (the application rates giving 50% or 90% inhibition of growth, respectively) were calculated from the results for the piperidinedione alone and with increasing rates of atrazine.

[3] = system: Bidens pilosa; test: as above; assay type: in vivo; conditions: 2 leaves
Protocol: as §1

[4] = system: Brassica kaber; test: as above; assay type: in vivo; conditions: 2-3 leaves
Protocol: as §1

[5] = system: Digitaria sanguinalis; test: as above; assay type: in vivo; conditions: 3 leaves
Protocol: as §1

[6] = system: Eleusine indica; test: as above; assay type: in vivo; conditions: 3 leaves
Protocol: as §1

[7] = system: Sesbania exactata; test: as above; assay type: in vivo; conditions: 2 leaves
Protocol: as §1

[8] = system: Solanum nigrum; test: as above; assay type: in vivo; conditions: 1-2 leaves
Protocol: as §1

[9] = system: Xanthium strumarium; test: as above; assay type: in vivo; conditions: 2 leaves
Protocol: as §1

[10] = system: maize var.Irla; test: Experiment 5: glasshouse, crop plants at 3 leaf stage, percentage phytotoxicity after 12 days; conditions: for % crop phytotoxicity Maize (3 leaves): Atrazine 0 g/ha
Protocol: An experiment was carried out to determine the biological interaction between atrazine and Compound 74 on maize. A wide range of dose rates of atrazine i.e. 250, 500, 1000 and 2000 g/ha (in a commercial suspension concentrate formulation containing 500g/l w/v atrazine) and of Compound 74 i.e. 31, 63, 125, 250, 1000 and 2000 g/ha (in a composition according to Example 2 as described hereinafter) were applied in a spray volume of 290litres/ha to four replicate 10cm square plastic plant pots of loam soil containing one maize plant, at the 3 leaf growth stage. Agricultural surfactant ('Agral') was added to the spray dilutions to give 0.2%v/v concentration.
After spraying the pots were arranged in randomised blocks in a glasshouse and watered as necessary. After 12 days the plants were assessed for percentage phytotoxicity (reduction in green area compared with unsprayed plants) (0 = no effect 100 = complete destruction).
E = X + Y […] where E, X and Y are percentage phytotoxicity.
The ED values were then used to plot an isobole according to the method of P.M.L. Tammes op cit. The results of percentage phytotoxicity, the ED₂₀ values calculated from them and the calculated expected value are given in Table 9.

Q: Which results are given for O=C1CCNC(=O)C1C(=O)c1ccc(C(F)(F)F)cc1[N+](=O)[O-] (stereo not drawn) [Compound 74, 3-(2-nitro-4-trifluoromethylbenzoyl)piperidine-2,4-dione]?
A: percentage phytotoxicity ([1]; Compound 74 16 g/ha alone): 13%; percentage phytotoxicity ([1]; Compound 74 31 g/ha alone): 12%; percentage phytotoxicity ([1]; Compound 74 63 g/ha alone): 40%; percentage phytotoxicity ([1]; Compound 74 125 g/ha alone): 50%; percentage phytotoxicity ([1]; Compound 74 250 g/ha alone): 77%; ED₅₀ ([1]; Compound 74 alone, 50% phytotoxicity): 101 g/ha; inhibition at 2 g/ha ([2]; Amaranthus retroflexus, post-emergence, Compound 74 2 g/ha alone): 27%; inhibition at 4 g/ha ([2]; Amaranthus retroflexus, post-emergence, Compound 74 4 g/ha alone): 47%; inhibition at 8 g/ha ([2]; Amaranthus retroflexus, post-emergence, Compound 74 8 g/ha alone): 69%; inhibition at 16 g/ha ([2]; Amaranthus retroflexus, post-emergence, Compound 74 16 g/ha alone): 76%; inhibition at 31 g/ha ([2]; Amaranthus retroflexus, post-emergence, Compound 74 31 g/ha alone): 86%; inhibition at 63 g/ha ([2]; Amaranthus retroflexus, post-emergence, Compound 74 63 g/ha alone): 90%; ED₉₀ ([2]; Compound 74 alone): ED₉₀(g/ha) 46.43; inhibition at 8 g/ha ([3]; Bidens pilosa, post-emergence, Compound 74 8 g/ha alone): 0%; inhibition at 16 g/ha ([3]; Bidens pilosa, post-emergence, Compound 74 16 g/ha alone): 0%; inhibition at 31 g/ha ([3]; Bidens pilosa, post-emergence, Compound 74 31 g/ha alone): 0%; inhibition at 125 g/ha ([3]; Bidens pilosa, post-emergence, Compound 74 125 g/ha alone): 48%; inhibition at 163 g/ha ([3]; Bidens pilosa, post-emergence, Compound 74 163 g/ha alone): 15%; inhibition at 250 g/ha ([3]; Bidens pilosa, post-emergence, Compound 74 250 g/ha alone): 75%; ED₅₀ ([3]; Compound 74 alone): ED₅₀(g/ha)141.27; ED₅₀ ([4]; Compound 74 alone): ED₅₀(g/ha) 10.3; inhibition at 2 g/ha ([4]; Mutarda arvensis, post-emergence, Compound 74 2 g/ha alone): 19%; inhibition at 4 g/ha ([4]; Mutarda arvensis, post-emergence, Compound 74 4 g/ha alone): 20%; inhibition at 8 g/ha ([4]; Mutarda arvensis, post-emergence, Compound 74 8 g/ha alone): 32%; inhibition at 16 g/ha ([4]; Mutarda arvensis, post-emergence, Compound 74 16 g/ha alone): 61%; inhibition at 31 g/ha ([4]; Mutarda arvensis, post-emergence, Compound 74 31 g/ha alone): 72%; inhibition at 63 g/ha ([4]; Mutarda arvensis, post-emergence, Compound 74 63 g/ha alone): 96%; ED₉₀ ([5]; Compound 74 alone): ED₉₀ (g/ha) 75.46; inhibition at 16 g/ha ([5]; Digitaria sanguinalis, post-emergence, Compound 74 16 g/ha alone): 55%; inhibition at 31 g/ha ([5]; Digitaria sanguinalis, post-emergence, Compound 74 31 g/ha alone): 75%; inhibition at 63 g/ha ([5]; Digitaria sanguinalis, post-emergence, Compound 74 63 g/ha alone): 88%; inhibition at 125 g/ha ([5]; Digitaria sanguinalis, post-emergence, Compound 74 125 g/ha alone): 96%; inhibition at 250 g/ha ([5]; Digitaria sanguinalis, post-emergence, Compound 74 250 g/ha alone): 99%; inhibition at 500 g/ha ([5]; Digitaria sanguinalis, post-emergence, Compound 74 500 g/ha alone): 100%; ED₅₀ ([6]; Compound 74 alone): ED₅₀ (g/ha) 72.43; inhibition at 16 g/ha ([6]; Eleusine indica, post-emergence, Compound 74 16 g/ha alone): 0%; inhibition at 31 g/ha ([6]; Eleusine indica, post-emergence, Compound 74 31 g/ha alone): 26%; inhibition at 63 g/ha ([6]; Eleusine indica, post-emergence, Compound 74 63 g/ha alone): 55%; inhibition at 125 g/ha ([6]; Eleusine indica, post-emergence, Compound 74 125 g/ha alone): 84%; inhibition at 250 g/ha ([6]; Eleusine indica, post-emergence, Compound 74 250 g/ha alone): 96%; inhibition at 500 g/ha ([6]; Eleusine indica, post-emergence, Compound 74 500 g/ha alone): 95%; ED₉₀ ([7]; Compound 74 alone): ED₉₀(g/ha)375.45; inhibition at 8 g/ha ([7]; Sesbania, post-emergence, Compound 74 8 g/ha alone): 65%; inhibition at 16 g/ha ([7]; Sesbania, post-emergence, Compound 74 16 g/ha alone): 73%; inhibition at 31 g/ha ([7]; Sesbania, post-emergence, Compound 74 31 g/ha alone): 61%; inhibition at 125 g/ha ([7]; Sesbania, post-emergence, Compound 74 125 g/ha alone): 84%; inhibition at 163 g/ha ([7]; Sesbania, post-emergence, Compound 74 163 g/ha alone): 80%; inhibition at 250 g/ha ([7]; Sesbania, post-emergence, Compound 74 250 g/ha alone): 79%; ED₉₀ ([8]; Compound 74 alone): ED₉₀(g/ha) 41.13; inhibition at 2 g/ha ([8]; Solanum nigrum, post-emergence, Compound 74 2 g/ha alone): 15%; inhibition at 4 g/ha ([8]; Solanum nigrum, post-emergence, Compound 74 4 g/ha alone): 30%; inhibition at 8 g/ha ([8]; Solanum nigrum, post-emergence, Compound 74 8 g/ha alone): 39%; inhibition at 16 g/ha ([8]; Solanum nigrum, post-emergence, Compound 74 16 g/ha alone): 60%; inhibition at 31 g/ha ([8]; Solanum nigrum, post-emergence, Compound 74 31 g/ha alone): 82%; inhibition at 63 g/ha ([8]; Solanum nigrum, post-emergence, Compound 74 63 g/ha alone): 94%; ED₉₀ ([9]; Compound 74 alone): ED₉₀(g/ha) 166.99; inhibition at 8 g/ha ([9]; Xanthium strumarium, post-emergence, Compound 74 8 g/ha alone): 55%; inhibition at 16 g/ha ([9]; Xanthium strumarium, post-emergence, Compound 74 16 g/ha alone): 45%; inhibition at 31 g/ha ([9]; Xanthium strumarium, post-emergence, Compound 74 31 g/ha alone): 74%; inhibition at 125 g/ha ([9]; Xanthium strumarium, post-emergence, Compound 74 125 g/ha alone): 86%; inhibition at 163 g/ha ([9]; Xanthium strumarium, post-emergence, Compound 74 163 g/ha alone): 79%; inhibition at 250 g/ha ([9]; Xanthium strumarium, post-emergence, Compound 74 250 g/ha alone): 92%; % crop phytotoxicity Maize (3 leaves) ([10]; Compound 74 63 g/ha): 1%; % crop phytotoxicity Maize (3 leaves) ([10]; Compound 74 125 g/ha): 3%; % crop phytotoxicity Maize (3 leaves) ([10]; Compound 74 250 g/ha): 6%; % crop phytotoxicity Maize (3 leaves) ([10]; Compound 74 500 g/ha): 10%; % crop phytotoxicity Maize (3 leaves) ([10]; Compound 74 1000 g/ha): 30%; % crop phytotoxicity Maize (3 leaves) ([10]; Compound 74 2000 g/ha): 58%; ED₂₀ ([10]; Compound 74 alone): ED₂₀(g/ha) 601
